In patent publication US20140329863A1 (priority 2011, published 2014):
Read-outs that look alike come from different tables or passages of the source.

How the values were obtained:
[1] = system: PrP^Sc in dividing ScN2a-cl3 cells; assay type: cell-based, mouse; set-up: Dividing ELISA pEC50 (μM) 1st Expt. / Dividing ELISA pEC50 (μM) 2nd Expt. / Dividing ELISA pEC50 (μM) 3rd Expt. / Dividing ELISA pEC50 (μM) Mean: unit not given here; conditions: for Inhibition of Baseline PrP^5c (%) Dividing Cells ELISA: SPC assay
[2] = system: PrP^Sc in nondividing ScN2a-cl3 cells; assay type: cell-based, mouse; conditions: for Inhibition of Baseline PrP^5c (%) Non-dividing Cells ELISA: SPC assay, nondividing cells
[3] = Table 29, 2-AMT analogs tested for potency, usually n = 3 or more
[4] = read-out: Potency (μM) ELISA (EC50), FDA-approved drugs, ScN2a-c13 assay, dividing cells
[5] = FDA-approved drugs, ScN2a-c13 assay, dividing cells, read-out: Potency (μM) ELISA (EC50)

Cc1ccnc(Nc2nc(-c3cc(-c4ccc(Cl)cc4)no3)cs2)c1 [IND64, {4-[3-(4-Chloro-phenyl)-isoxazol-5-yl]-thiazol-2-yl}-(4-methyl-pyridin-2-yl)-amine]
EC50 ([1]; AMT analogs tested for potency): 0.85 µM | EC50 [1, 3]: 0.85 µM

CN1C[C@H](C(=O)N[C@]2(C)O[C@@]3(O)[C@@H]4CCCN4C(=O)[C@H](Cc4ccccc4)N3C2=O)C[C@@H]2c3cccc4[nH]cc(c34)C[C@H]21 [Dihydroergotamine]
Potency (μM) Cell Viability (N2a-cl3 cells; mouse): >10 µM | EC50 [1, 4]: 6.44 µM

O=C(Nc1ccc(Cl)cc1)Nc1cc(Cl)cc(Cl)c1 [IND-5942]
Dividing Cells V (cell viability percentages) (N2a-cl3 cells): 3% | Non-dividing Cells V (cell viability percentages) (N2a-cl3 cells): 8% | Inhibition of Baseline PrP^5c (%) Non-dividing Cells ELISA [2]: 51% | Inhibition of Baseline PrP^5c (%) Dividing Cells ELISA ([1]; dividing cells): 91%

Enoxaparin
Potency Cell Viability, mg/L (N2a-cl3 cells): >10 (mg/L)

COc1ccc(-c2csc(Nc3ccc(C(F)(F)F)cn3)n2)cc1OC [IND43, [4-(3,4-Dimethoxy-phenyl)-thiazol-2-yl]-(5-trifluoromethyl-pyridin-2-yl)-amine]
EC50 ([1]; AMT analogs tested for potency): 2.53 µM | EC50 [1, 3]: 2.53 µM

O=C(Nc1ccc(Cl)c(Cl)c1)NC(CC(=O)c1ccc([N+](=O)[O-])cc1)C(Cl)(Cl)Cl (centres unmarked) [IND-10851]
Dividing Cells V (cell viability percentages) (N2a-cl3 cells): 15% | Non-dividing Cells V (cell viability percentages) (N2a-cl3 cells): 19% | Inhibition of Baseline PrP^5c (%) Non-dividing Cells ELISA [2]: 61% | Inhibition of Baseline PrP^5c (%) Dividing Cells ELISA ([1]; dividing cells): 83%

COc1cc(CN2CCN(c3cccc(C)c3C)CC2)cc(Br)c1O [IND-15461]
Non-dividing Cells V (cell viability percentages) (N2a-cl3 cells): 3% | Inhibition of Baseline PrP^5c (%) Non-dividing Cells ELISA [2]: 48% | Inhibition of Baseline PrP^5c (%) Dividing Cells ELISA ([1]; dividing cells): 22%

CC(=O)c1ccc(N2CCN(Cc3ccc(Br)s3)CC2)cc1 [IND-7190]
Dividing Cells V (cell viability percentages) (N2a-cl3 cells): 8% | Non-dividing Cells V (cell viability percentages) (N2a-cl3 cells): 12% | Inhibition of Baseline PrP^5c (%) Non-dividing Cells ELISA [2]: 34% | Inhibition of Baseline PrP^5c (%) Dividing Cells ELISA ([1]; dividing cells): 97%

COc1ccc(-c2csc(Nc3cc4ccccc4cn3)n2)cc1 [IND86, Isoquinolin-3-yl-[4-(4-methoxy-phenyl)-thiazol-2-yl]-amine]
EC50 ([1]; AMT analogs tested for potency): 0.342 µM | EC50 [1, 3]: 0.342 µM

c1ccc2cc(Nc3nc(-c4ccncc4)cs3)ncc2c1 [compound 32]
EC50 (N2a-cl3 cells; read-out: Dividing Calcein EC50 (μM) Mean (n = 3)): > 32 µM | EC50 ([2]; read-out: Non-Dividing ELISA EC50 (μM) Mean (n = 3), ScN2a-c13 non-dividing cells, mean n = 3): > 32 µM | Dividing ELISA pEC50 (μM) 1st Expt. ([1]; ScN2a-cl3 dividing cells, 1st determination): 6.58 | EC50 ([1]; ScN2a-cl3 dividing cells, 1st determination, read-out: Dividing ELISA EC50 (μM) 1st Expt.): 0.261 µM | Dividing ELISA pEC50 (μM) 2nd Expt. ([1]; ScN2a-cl3 dividing cells, 2nd determination): 6.56 | EC50 ([1]; ScN2a-cl3 dividing cells, 2nd determination, read-out: Dividing ELISA EC50 (μM) 2nd Expt.): 0.277 µM | Dividing ELISA pEC50 (μM) 3rd Expt. ([1]; ScN2a-cl3 dividing cells, 3rd determination): 6.42 | EC50 ([1]; ScN2a-cl3 dividing cells, 3rd determination, read-out: Dividing ELISA EC50 (μM) 3rd Expt.): 0.383 µM | Dividing ELISA pEC50 (μM) Mean ([1]; ScN2a-cl3 dividing cells, mean of three determinations): 6.52 | EC50 ([1]; ScN2a-cl3 dividing cells, mean of three determinations, read-out: Dividing ELISA EC50 (μM) Mean): 0.307 µM

Cc1ccc2[nH]c3c(c2c1)CCCC3NC1CCCCC1 (centres unmarked) [IND-5381]
Dividing Cells V (cell viability percentages) (N2a-cl3 cells): 12% | Non-dividing Cells V (cell viability percentages) (N2a-cl3 cells): 16% | Inhibition of Baseline PrP^5c (%) Non-dividing Cells ELISA [2]: 48% | Inhibition of Baseline PrP^5c (%) Dividing Cells ELISA ([1]; dividing cells): 27%

O=C(Nc1ccc(F)c(Cl)c1)Nc1ccc(Cl)c(Cl)c1 [IND-8255]
Dividing Cells V (cell viability percentages) (N2a-cl3 cells): 2% | Non-dividing Cells V (cell viability percentages) (N2a-cl3 cells): 11% | Inhibition of Baseline PrP^5c (%) Non-dividing Cells ELISA [2]: 61% | Inhibition of Baseline PrP^5c (%) Dividing Cells ELISA ([1]; dividing cells): 92%

O=C(Nc1ccc(Cl)cc1)Nc1ccc(Cl)c(F)c1 [IND-19237]
Dividing Cells V (cell viability percentages) (N2a-cl3 cells): 2% | Non-dividing Cells V (cell viability percentages) (N2a-cl3 cells): 26% | Inhibition of Baseline PrP^5c (%) Non-dividing Cells ELISA [2]: 66% | Inhibition of Baseline PrP^5c (%) Dividing Cells ELISA ([1]; dividing cells): 25%

Clc1ccc(N2CCN(C3CCSC3)CC2)cc1 (centres unmarked) [IND-19847]
Non-dividing Cells V (cell viability percentages) (N2a-cl3 cells): 3% | Inhibition of Baseline PrP^5c (%) Non-dividing Cells ELISA [2]: 51% | Inhibition of Baseline PrP^5c (%) Dividing Cells ELISA ([1]; dividing cells): 42%

Cc1ccc(Nc2nc(-c3ccncc3)cs2)nc1 [IND29, (5-Methyl-pyridin-2-yl)-(4-pyridin-4-yl-thiazol-2-yl)-amine]
EC50 ([1]; AMT analogs tested for potency): 1.57 µM | EC50 [1, 3]: 1.57 µM

CC(=O)c1ccc(N2CCN(CC(C)CCC=C(C)C)CC2)cc1 (centres unmarked) [IND-18721]
Non-dividing Cells V (cell viability percentages) (N2a-cl3 cells): 10% | Inhibition of Baseline PrP^5c (%) Non-dividing Cells ELISA [2]: 55% | Inhibition of Baseline PrP^5c (%) Dividing Cells ELISA ([1]; dividing cells): 78%

CC(=O)c1ccc(N2CCN(Cc3cccc(Br)c3)CC2)cc1 [IND-7046]
Dividing Cells V (cell viability percentages) (N2a-cl3 cells): 14% | Non-dividing Cells V (cell viability percentages) (N2a-cl3 cells): 2% | Inhibition of Baseline PrP^5c (%) Non-dividing Cells ELISA [2]: 39% | Inhibition of Baseline PrP^5c (%) Dividing Cells ELISA ([1]; dividing cells): 67%

CNCCc1c(-c2ccccc2)n(-c2ccccc2)c2ccccc12 [IND-10094]
Dividing Cells V (cell viability percentages) (N2a-cl3 cells): 19% | Non-dividing Cells V (cell viability percentages) (N2a-cl3 cells): 21% | Inhibition of Baseline PrP^5c (%) Non-dividing Cells ELISA [2]: 46% | Inhibition of Baseline PrP^5c (%) Dividing Cells ELISA ([1]; dividing cells): 81%

COc1ccc(-c2csc(Nc3ccccn3)n2)cc1OC [IND135, [4-(3,4-Dimethoxy-phenyl)-thiazol-2-yl]-pyridin-2-yl-amine]
EC50 ([1]; AMT analogs tested for potency): 1.23 µM

Cc1ccc(Nc2nc(-c3c(-c4ccccc4)noc3C)cs2)nc1 [IND36, [4-(5-Methyl-3-phenyl-isoxazol-4-yl)-thiazol-2-yl]-(5-methyl-pyridin-2-yl)-amine]
EC50 ([1]; AMT analogs tested for potency): > 32 µM | EC50 [1, 3]: > 32 µM

CCCCc1oc2ccccc2c1C(=O)c1cc(I)c(OCCN(CC)CC)c(I)c1 [Amiodarone]
Potency (μM) Cell Viability (N2a-cl3 cells; mouse): >10 µM

CC(=O)c1ccc(N2CCN(Cc3ccccc3Cl)CC2)cc1 [IND-19130]
Dividing Cells V (cell viability percentages) (N2a-cl3 cells): 5% | Non-dividing Cells V (cell viability percentages) (N2a-cl3 cells): 2% | Inhibition of Baseline PrP^5c (%) Non-dividing Cells ELISA [2]: 41% | Inhibition of Baseline PrP^5c (%) Dividing Cells ELISA ([1]; dividing cells): 86%

O=C(Nc1ccccc1)Nc1ccc(F)c(Cl)c1 [IND-8314]
Dividing Cells V (cell viability percentages) (N2a-cl3 cells): 7% | Non-dividing Cells V (cell viability percentages) (N2a-cl3 cells): 17% | Inhibition of Baseline PrP^5c (%) Non-dividing Cells ELISA [2]: 56% | Inhibition of Baseline PrP^5c (%) Dividing Cells ELISA ([1]; dividing cells): 87%

Nc1c(C(=O)Nc2cc(F)ccc2F)sc2nc(-c3ccncc3)ccc12 [IND-0024575]
EC50 ([1]; read-out: Antiprion activity EC50, thienopyridine analogs): 3.49 µM

CC(=O)c1ccc2c(c1)N(CCCN(C)C)c1ccccc1S2 [Acepromazine]
Potency (μM) Cell Viability (N2a-cl3 cells; mouse): >10 µM | EC50 [1, 4]: 6.93 µM

Cc1cccc(Nc2nc(-c3ccncc3)cs2)n1 [IND7, (6-Methyl-pyridin-2-yl)-(4-pyridin-4-yl-thiazol-2-yl)-amine]
EC50 ([1]; AMT analogs tested for potency): 1 µM | EC50 [1, 3]: 1 µM

COc1ccc2[nH]c3c(OC)ncnc3c2c1 [IND-22103]
Inhibition of Baseline PrP^5c (%) Non-dividing Cells ELISA [2]: 37% | Inhibition of Baseline PrP^5c (%) Dividing Cells ELISA ([1]; dividing cells): 81%

COc1ccc2cc1Oc1ccc(cc1)C[C@H]1c3cc(c(OC)cc3CCN1C)Oc1c(OC)c(OC)cc3c1[C@H](C2)N(C)CC3 [Tetrandine]
Potency (μM) Cell Viability (N2a-cl3 cells): 5.009 µM | EC50 [1, 5]: 2.15 µM

CN1CCc2cccc3c2[C@H]1Cc1ccc(O)c(O)c1-3 [Apomorphine]
EC50 [1, 4]: > 10 µM

Cc1ccc(Nc2nc(-c3ccc(-c4ccccn4)s3)cs2)nc1 [IND76, (5-Methyl-pyridin-2-yl)-[4-(5-pyridin-2-yl-thiophen-2-yl)-thiazol-2-yl]-amine]
EC50 ([1]; AMT analogs tested for potency): 1.23 µM | EC50 [1, 3]: 1.23 µM

COc1ccc(-c2csc(Nc3cnccn3)n2)cc1OC [IND82, [4-(3,4-Dimethoxy-phenyl)-thiazol-2-yl]-pyrazin-2-yl-amine]
EC50 ([1]; AMT analogs tested for potency): 15.6 µM | EC50 [1, 3]: 15.6 µM

COc1ccc(-c2csc(Nc3cc(C)ccn3)n2)cc1OC [IND42, [4-(3,4-Dimethoxy-phenyl)-thiazol-2-yl]-(4-methyl-pyridin-2-yl)-amine]
EC50 ([1]; AMT analogs tested for potency): 1 µM | EC50 [1, 3]: 1 µM

CCOc1ccc(/N=N/c2ccc(N)cc2N)cc1 [Ethoxazine]
Potency (μM) Cell Viability (N2a-cl3 cells): >10 µM | EC50 [1, 5]: 4.76 µM

Nc1c(/N=N/c2ccc(-c3ccc(/N=N/c4cc(S(=O)(=O)O)c5ccccc5c4N)cc3)cc2)cc(S(=O)(=O)O)c2ccccc12 [Congo Red]
Potency (μM) Cell Viability (N2a-cl3 cells; mouse): >10 µM | EC50 [1, 4]: 0.452 µM

CC(=O)c1ccc(N2CCN(Cc3c(C)n(C)n(-c4ccccc4)c3=O)CC2)cc1 [IND-19672]
Inhibition of Baseline PrP^5c (%) Non-dividing Cells ELISA [2]: 35% | Inhibition of Baseline PrP^5c (%) Dividing Cells ELISA ([1]; dividing cells): 64%

COc1ccccc1OCCNCC(O)COc1cccc2[nH]c3ccccc3c12 (centres unmarked) [Carvedilol]
Potency (μM) Cell Viability (N2a-cl3 cells; mouse): 6.096 µM | EC50 [1, 4]: 2.28 µM
